Here are results for 15 molecules from patent publication US8173689B2 (Novartis AG, priority 2006, dated 2012).

One assay has as its target T1, kinase domain of PDGFRβ (Homo sapiens, UniProt P09619).
T1 construct: The kinase domain of PDGFRβ was assayed in 50 mM Hepes; purchased Invitrogen P3082
In words: Inhibition of PDGFRb kinase signaling in an in vitro biochemical assay (alphascreen). The note with it: tested at about 1 μM; for inhibition at 1 µM: read-out: PDGFRβ percent inhibition. Background: In Alpha technology, singlet oxygen from a donor bead excites a nearby acceptor bead.

The target of assay [1] is T2, full-length human CSF-1R receptor (Homo sapiens, UniProt P07333).
T2 construct: transfected with the full-length human CSF-1R receptor cloned in house; expressed in transfected cells; host or cells: HEK293H (Invitrogen Cat. #11631017)
In words: In vitro inhibition of CSF-1R receptor tyrosine phosphorylation in transfected HEK293H cells stimulated with MCSF. Type of assay: cell-based. Particulars: tested at about 1 μM; for inhibition at 1 µM: HEK293-H, read-out: pCSF1R percent inhibition. How it is done:
The lysate was then transferred to total CSF-1R antibody coated 96-well plates that had already been blocked with 3% Blocker A from Mesoscale discovery (MSD) for 2 hours and washed afterwards. Lysates were incubated overnight at 4° C. and the plates were then washed 4× with MSD Tris Wash Buffer. […] The plates were read on the Sector 6000 instrument (MSD). Raw data was imported in Abase and EC50s calculated with XL-fit data analysis software.

For assay [2], the system named is MNFS60 (murine AML cells). In words: Cell viability assay in MCSF dependent MNFS60 cells (Cell Titer Glo). Particulars: tested at about 1 μM; for inhibition at 1 µM: Mus musculus, read-out: M-NFS-60 CP percent inhibition. Type of assay: cell-based. An outline of the steps:
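EC50 values reflect MCSF-driven (10 ng/ml final) proliferation over 72 hrs at 37° C., read by CellTiter-Glo. Each condition was run in triplicate.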
(In general: In ATP-based viability assays light output follows the ATP content of the culture.)

Assay [3] has as its target T3, cytoplasmic domain of the human CSF-1R (Homo sapiens, UniProt P07333).
T3 construct: Recombinant protein corresponding to the cytoplasmic domain of the human CSF-1R; purchased Invitrogen Corporation, Carlsbad, Calif; PV3249
T3 sequence (P07333 539-972 limits assumed): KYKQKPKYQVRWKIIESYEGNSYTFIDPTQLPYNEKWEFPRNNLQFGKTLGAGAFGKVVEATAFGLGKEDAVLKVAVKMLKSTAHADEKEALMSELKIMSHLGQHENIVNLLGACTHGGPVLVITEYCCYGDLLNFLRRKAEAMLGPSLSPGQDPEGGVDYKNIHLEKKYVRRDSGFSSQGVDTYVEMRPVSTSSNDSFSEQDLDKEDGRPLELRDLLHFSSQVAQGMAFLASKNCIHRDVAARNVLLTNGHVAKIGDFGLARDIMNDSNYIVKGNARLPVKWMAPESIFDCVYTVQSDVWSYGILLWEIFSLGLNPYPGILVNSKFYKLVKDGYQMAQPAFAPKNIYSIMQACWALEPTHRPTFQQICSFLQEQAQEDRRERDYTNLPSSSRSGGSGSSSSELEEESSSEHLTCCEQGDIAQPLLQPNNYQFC
The experiment in a line: In vitro kinase assay for colony stimulating factor-1 receptor (AlphaScreen). Type of assay: biochemical. Particulars: tested at about 1 μM; for inhibition at 1 µM: read-out: CSF-1R percent inhibition. Put shortly: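 AlphaScreen read-out (PT66 anti-pTyr acceptor beads, streptavidin donor beads, overnight incubation) measured phosphorylated peptide product. The product was formed by the human CSF-1R cytoplasmic domain at 4 nM with 1 µM ATP in Mg2+/Mn2+ HEPES buffer, pH 7.5. Compound dilution series were 3-fold, starting at 25 µM.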

The target of another assay is T4, kinase domain of cKIT (Homo sapiens, UniProt P10721).
T4 construct: The kinase domain of cKIT was assayed in 50 mM Hepes; purchased Upstate 14-559
The experiment in a line: Inhibition of cKIT kinase signaling in an in vitro biochemical assay (alphascreen). Particulars: tested at about 1 μM; for inhibition at 1 µM: read-out: cKit percent inhibition.

Where two headings read alike, the source gives them in different places.

T1 sequence (P09619 600-962 limits assumed): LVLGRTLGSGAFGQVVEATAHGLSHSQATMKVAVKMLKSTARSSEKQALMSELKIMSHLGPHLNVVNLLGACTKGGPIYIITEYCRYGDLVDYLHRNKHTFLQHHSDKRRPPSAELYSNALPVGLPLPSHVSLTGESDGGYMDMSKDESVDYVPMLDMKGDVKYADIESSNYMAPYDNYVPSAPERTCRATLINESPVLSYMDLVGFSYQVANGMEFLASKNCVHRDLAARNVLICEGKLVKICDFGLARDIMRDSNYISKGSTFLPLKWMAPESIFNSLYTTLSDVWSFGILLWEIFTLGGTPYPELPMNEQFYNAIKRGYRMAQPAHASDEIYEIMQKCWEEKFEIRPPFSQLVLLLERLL
T4 sequence (P10721 589-937 limits assumed): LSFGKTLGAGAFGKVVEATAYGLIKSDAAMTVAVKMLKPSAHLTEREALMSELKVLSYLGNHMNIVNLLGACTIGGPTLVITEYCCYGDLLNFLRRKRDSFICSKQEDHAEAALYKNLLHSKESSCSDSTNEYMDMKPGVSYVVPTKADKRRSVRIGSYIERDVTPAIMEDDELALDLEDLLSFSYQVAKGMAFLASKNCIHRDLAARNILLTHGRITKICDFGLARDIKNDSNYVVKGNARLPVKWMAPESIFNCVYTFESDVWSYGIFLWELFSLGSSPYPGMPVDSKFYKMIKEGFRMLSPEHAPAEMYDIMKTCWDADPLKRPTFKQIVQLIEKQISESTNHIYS
T2 sequence (P07333 20-972): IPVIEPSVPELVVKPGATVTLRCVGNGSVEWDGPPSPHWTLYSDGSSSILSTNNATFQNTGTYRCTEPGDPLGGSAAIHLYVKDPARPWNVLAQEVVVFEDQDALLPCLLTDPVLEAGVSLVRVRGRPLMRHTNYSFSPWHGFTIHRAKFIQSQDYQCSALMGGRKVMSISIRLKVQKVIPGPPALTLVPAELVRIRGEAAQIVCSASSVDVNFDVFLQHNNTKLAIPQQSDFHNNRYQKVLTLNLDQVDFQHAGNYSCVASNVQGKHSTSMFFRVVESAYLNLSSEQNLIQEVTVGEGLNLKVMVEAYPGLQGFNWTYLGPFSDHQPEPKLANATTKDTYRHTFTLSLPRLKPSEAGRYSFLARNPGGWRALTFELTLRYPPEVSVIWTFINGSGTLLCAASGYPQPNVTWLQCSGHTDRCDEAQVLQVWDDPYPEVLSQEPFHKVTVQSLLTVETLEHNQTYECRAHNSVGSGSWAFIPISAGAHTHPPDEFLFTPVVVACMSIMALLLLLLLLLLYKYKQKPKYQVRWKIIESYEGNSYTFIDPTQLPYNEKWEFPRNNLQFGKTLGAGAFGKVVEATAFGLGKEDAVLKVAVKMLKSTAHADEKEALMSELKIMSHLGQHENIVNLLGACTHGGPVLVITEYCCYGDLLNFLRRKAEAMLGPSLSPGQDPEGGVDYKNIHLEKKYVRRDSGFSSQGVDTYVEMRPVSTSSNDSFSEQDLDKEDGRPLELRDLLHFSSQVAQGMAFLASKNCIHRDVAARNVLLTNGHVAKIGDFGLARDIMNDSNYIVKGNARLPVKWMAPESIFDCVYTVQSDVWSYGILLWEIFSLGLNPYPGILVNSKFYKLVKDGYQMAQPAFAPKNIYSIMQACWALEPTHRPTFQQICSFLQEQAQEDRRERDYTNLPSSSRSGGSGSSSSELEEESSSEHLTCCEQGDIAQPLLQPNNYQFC

One may read the inhibition as how much of the control response was suppressed. On to `CNC(=O)c1cc(Oc2ccc3nc(NCc4cc(F)ccc4F)oc3c2)ccn1` [Compound 33, 4-[2-(2,5-Difluoro-benzylamino)-benzooxazol-6-yloxy]-pyridine-2-carboxylic acid methylamide], for which the inhibition at 1 µM at kinase domain of PDGFRβ (compounds of Table 4) worked out at 0%; on kinase domain of PDGFRβ, 35%; in assay [1] (HEK293H cells), 83%; in assay [1] (compounds of Table 4) it was 98%; in assay [2] (MNFS60 cells), 35%; in assay [2] (compounds of Table 4) it was 100%. Also, the inhibition at 1 µM in assay [3] (compounds of Table 4) was 100%; in assay [3], 98%; at kinase domain of cKIT (compounds of Table 4) it was 65%.

In the case of `CNC(=O)c1cc(Oc2ccc3nc(NCc4c(F)cccc4OC)sc3c2)ccn1` [Example 223, 4-(2-(2-fluoro-6-methoxybenzylamino)benzo[d]thiazol-6-yloxy)-N-methylpicolinamide], the inhibition at 1 µM is 28% on kinase domain of PDGFRβ (compounds of Table 3); 97% in assay [1] (compounds of Table 3); 100% in assay [2] (compounds of Table 3); 100% in assay [3] (compounds of Table 3); 54% at kinase domain of cKIT (compounds of Table 3).

Molecule “4-[2-(2-Chloro- benzylamino)-benzooxazol- 6-yloxy]-pyridin-2- carboxylic acid methylamide [Compound 8]” yielded a PDGFRβ percent inhibition at kinase domain of PDGFRβ (compounds of Table 4) of 35%. Also, the pCSF1R percent inhibition in assay [1] (compounds of Table 4) amounted to 98%. Moreover, the “M-NFS-60 CP percent inhibition” value in assay [2] (compounds of Table 4) was 100%. This molecule had a CSF-1R percent inhibition in assay [3] (compounds of Table 4) of 100%. The cKit percent inhibition at kinase domain of cKIT (compounds of Table 4) is recorded as 25%.

Turning to `CNC(=O)c1cc(Oc2ccc3nc(NC4CCCCNC4=O)sc3c2)ccn1` (stereo not shown) [Compound 93], the inhibition at 1 µM at kinase domain of PDGFRβ (compounds of Table 3) turned out to be 0%; in assay [1] (compounds of Table 3) it was 47%; in assay [2] (compounds of Table 3), 23%; in assay [3] (compounds of Table 3), 100%; on kinase domain of cKIT (compounds of Table 3) it was 12%.

On to `OC[C@H](Nc1nc2ccc(Oc3ccnc4ccccc34)cc2s1)C1CCCCC1` [Example 240, (R)-2-cyclohexyl-2-(6-(quinolin-4-yloxy)benzo[d]thiazol-2-ylamino)ethanol], for which the inhibition at 1 µM at kinase domain of PDGFRβ (compounds of Table 3) stood at 16%; in assay [1] (compounds of Table 3), 71%; in assay [2] (compounds of Table 3), 66%; in assay [3] (compounds of Table 3), 100%; at kinase domain of cKIT (compounds of Table 3), 21%.

For the molecule `O[C@@H]1CCCC[C@H]1Nc1nc2ccc(Oc3ccnc(-c4nc5c([nH]4)CCCC5)c3)cc2s1` [Example 258, (1R,2R)-2-(6-(2-(4,5,6,7-tetrahydro-1H-benzo[d]imidazol-2-yl)pyridin-4-yloxy)benzo[d]thiazol-2-ylamino)cyclohexanol], the inhibition at 1 µM came out at 62% on kinase domain of PDGFRβ (compounds of Table 3); 99% in assay [1] (compounds of Table 3); 100% in assay [2] (compounds of Table 3); 100% in assay [3] (compounds of Table 3); 44% on kinase domain of cKIT (compounds of Table 3).

`CNC(=O)c1cc(Oc2ccc3nc(N[C@@H]4CCCC[C@H]4NS(C)(=O)=O)sc3c2)ccn1` [Example 326, N-methyl-4-(2-((1R,2R)-2-(methylsulfonamido)cyclo-hexylamino)benzo[d]thiazol-6-yloxy)picolinamide]: the inhibition at 1 µM at kinase domain of PDGFRβ was 7%; in assay [1] (HEK293H cells), 81%; in assay [2] (MCSF dependent MNFS60 cells), 33%; in assay [3] it was 65%; on kinase domain of cKIT, 44%.

For the molecule `CNC(=O)c1cc(Oc2ccc3nc(NC4CCCC(O)C4)sc3c2)ccn1` (stereo not shown) [Example 293, 4-(2-(3-hydroxycyclohexylamino)benzo[d]thiazol-6-yloxy)-N-methylpicolinamide], the inhibition at 1 µM turned out to be 0% at kinase domain of PDGFRβ (compounds of Table 3); 82% in assay [1] (compounds of Table 3); 67% in assay [2] (compounds of Table 3); 100% in assay [3] (compounds of Table 3); 22% at kinase domain of cKIT (compounds of Table 3).

For `CNC(=O)c1cc(Oc2ccc3nc(NCc4cccc(Cl)c4Cl)sc3c2)ccn1` [Compound 134, 4-[2-(2,3-Dichloro-benzylamino)-benzothiazol-6-yloxy]-pyridine-2-carboxylic acid methylamide], the inhibition at 1 µM turned out to be 0% at kinase domain of PDGFRβ; 93% in assay [1] (HEK293H cells); 93% in assay [2] (MNFS60 cells); 98% in assay [3]; 98% on kinase domain of cKIT.

Regarding `C[C@H](Nc1nc2ccc(Oc3ccnc(-c4ccncc4)c3)cc2s1)C1CCCCC1` [Example 275, (S)-6-(2,4'-bipyridin-4-yloxy)-N-(1-cyclohexylethyl)benzo[d] thiazol-2-amine], the inhibition at 1 µM on kinase domain of PDGFRβ (compounds of Table 3) turned out to be 16%; in assay [1] (compounds of Table 3), 94%; in assay [2] (compounds of Table 3) it was 89%; in assay [3] (compounds of Table 3), 100%; at kinase domain of cKIT (compounds of Table 3) it was 45%.

With `CNC(=O)c1cc(Oc2ccc3nc(N[C@@H]4CCc5ccccc5C4)sc3c2)ccn1` [Example 329, (R)-N-methyl-4-(2-(1,2,3,4-tetrahydronaphthalen-2-ylamino)benzo[d]thiazol-6-yloxy)picolinamide], the inhibition at 1 µM at kinase domain of PDGFRβ was determined as 17%; in assay [1] (HEK293H cells), 92%; in assay [2] (MCSF dependent MNFS60 cells) it was 84%; in assay [3], 100%; at kinase domain of cKIT, 59%.

For `Cc1nc(-c2cc(Oc3ccc4nc(N[C@@H]5CCCC[C@H]5O)sc4c3)ccn2)[nH]c1C` [Example 232, (1R,2R)-2-(6-(2-(4,5-dimethyl-1H-imidazol-2-yl)pyridin-4-yloxy)benzo[d]thiazol-2-ylamino)cyclohexanol], the inhibition at 1 µM came to 64% on kinase domain of PDGFRβ (compounds of Table 3); 99% in assay [1] (compounds of Table 3); 100% in assay [2] (compounds of Table 3); 100% in assay [3] (compounds of Table 3); 34% on kinase domain of cKIT (compounds of Table 3).

Take `CNC(=O)c1cc(Oc2ccc3nc(N[C@@H]4c5ccccc5C[C@@H]4O)sc3c2)ccn1` [Example 323, 4-(2-((1R,2S)-2-hydroxy-2,3-dihydro-1H-inden-1-ylamino)benzo[d]thiazol-6-yloxy)-N-methylpicolinamide]: the inhibition at 1 µM turned out to be 24% at kinase domain of PDGFRβ; 98% in assay [1] (HEK293H cells); 100% in assay [2] (MCSF dependent MNFS60 cells); 100% in assay [3]; 25% on kinase domain of cKIT.

`CN1CCN(c2ccc(-c3cc(Oc4ccc5nc(N[C@@H]6CCCC[C@H]6O)sc5c4)ccn3)cn2)CC1` [Cmpd 164, (1R,2R)-2-(6-(6'-(4-methylpiperazin-1-yl)-2,3'-bipyridin-4-yloxy)benzo[d]thiazol-2-ylamino)cyclohexanol]: the inhibition at 1 µM is 87% at kinase domain of PDGFRβ (compounds of Table 3); 100% in assay [1] (compounds of Table 3); 100% in assay [2] (compounds of Table 3); 100% in assay [3] (compounds of Table 3); 79% on kinase domain of cKIT (compounds of Table 3).

On to `CNC(=O)c1cc(Oc2ccc3nc(N[C@@H]4CCCC[C@H]4O)sc3c2Cl)ccn1` [Example 378, 4-(7-chloro-2-((1R,2R)-2-hydroxycyclohexylamino)benzo[d]thiazol-6-yloxy)-N-methylpicolinamide], for which the inhibition at 1 µM at kinase domain of PDGFRβ is 43%; in assay [1] (HEK293H cells) it was 87%; in assay [2] (MCSF dependent MNFS60 cells), 90%; in assay [3] it was 100%; on kinase domain of cKIT, 62%.
